From patent US20160100574A1, “Antimicrobial Compositions Comprising Glyceryl Ethers” (SYMRISE AG, priority 2013, published 2016)

How the values were obtained:
Type in all cases: cell-based
A. brasiliensis = assay: Challenge test / synergy (Kull equation), A. brasiliensis; settings: for colony counts Day 2: Day 2, 1% b.w. active in aqueous emulsion of Glyceryl stearyl citrate (Dracorin CE); for colony counts Day 14: Day 14, 1% b.w. active in aqueous emulsion of Glyceryl stearyl citrate (Dracorin CE); for colony counts Day 28: Day 28, 1% b.w. active in aqueous emulsion of Glyceryl stearyl citrate (Dracorin CE)
Experimental: (§1) 1% b.w. of heptylglycerin, benzylglycerin and phenylpropylglycerin, respectively was added to an aqueous emulsion of Glyceryl stearyl citrate (Dracorin CE). The formulations were tested in standard challenge tests against various micro-organisms.
To calculate the synergism between compounds of formula (I) and other antimicrobial actives, the Kull equation^1 2 was used
SI=(Cmixture×PA)/CA+(Cmixture×PB)/CB (I)
where SI is the Synergy Index according to Kull^1), 2) CA is the cell count for substance A CB is the cell count for substance B Cmixture is the cell count for the mixture of substances A and B PA is the proportion of the substance A in the mixture PB is the proportion of the substance B in the mixture. ^1 Kull, F. C., Eismann, P. C., Sylvestrowicz, H. D., and R. L. Mayer (1961). Mixtures of Quaternary Ammonium Compounds and Long-chain Fatty Acids as Antifungal Agents. Applied Microbiology 9, 538-541.^2 Steinberg, D.C. (2000). Measuring Synergy. Cosmetics & Toiletries 115 (11), 59-62.
Colony counts of <100 were arbitrarily set to 100, in order to allow for synergy calculations with the above equation. The abbreviation “n.a.” means not applicable.

Aspergillus brasiliensis = assay: Minimum inhibitory concentration according to DIN 58940, Aspergillus brasiliensis; settings: Aspergillus brasiliensis, single antimicrobial agents
From the text: (§2) In order to calculate the Synergy Index SI with MIC values, the Kull equation is used as follows:
(§3) SI=(MICmixture×PA)/MICA+(MICmixture×PB)/MICB (II)
(§4) where SI is the Synergy Index according to Kull^1), 2) MICA is the MIC value for substance A MICB is the MIC value for substance B MICmixture is the MIC value for the mixture of substances A and B PA is the proportion of the substance A in the mixture PB is the proportion of the substance B in the mixture. b) Mixtures containing 3 components
(§5) SI=(MICmixture×PA)/MICA+(MICmixture×PB)/MICB+(MICmixture×PC)/MICC
(§6) where SI is the Synergy Index according to Kull^1), 2) MICA is the MIC value for substance A MICB is the MIC value for substance B MICC is the MIC value for substance C MICmixture is the MIC value for the mixture of substances […] PA is the proportion of the substance A in the mixture PB is the proportion of the substance B in the mixture. PC is the proportion of the substance C in the mixture.

S. aureus = assay: Challenge test of preserved emulsion, S. aureus; settings: for colony counts Day 2: Day 2, 1% b.w. active in aqueous emulsion of Glyceryl stearyl citrate (Dracorin CE); for colony counts Day 7: Day 7, 1% b.w. active in aqueous emulsion of Glyceryl stearyl citrate (Dracorin CE); for colony counts Day 14: Day 14, 1% b.w. active in aqueous emulsion of Glyceryl stearyl citrate (Dracorin CE); for colony counts Day 28: Day 28, 1% b.w. active in aqueous emulsion of Glyceryl stearyl citrate (Dracorin CE)
Experimental: as §1, with “micro-organisms. The results are shown in Table 1 and indicate the high activity of the actives against yeast and bacteria, but not against mould.” for “micro-organisms.”

Escherichia coli = assay: Minimum inhibitory concentration according to DIN 58940, Escherichia coli; settings: Escherichia coli, single antimicrobial agents, read-out: MIC values E. coli
From the text: as §2, §3, §4, §5, §6

Staphylococcus aureus = assay: Minimum inhibitory concentration according to DIN 58940, Staphylococcus aureus; settings: Staphylococcus aureus, single antimicrobial agents
From the text: as §2, §3, §4, §5, §6

P. aeruginosa = assay: Challenge test of preserved emulsion, P. aeruginosa; settings: for colony counts Day 2: Day 2, 1% b.w. active in aqueous emulsion of Glyceryl stearyl citrate (Dracorin CE); for colony counts Day 7: Day 7, 1% b.w. active in aqueous emulsion of Glyceryl stearyl citrate (Dracorin CE); for colony counts Day 14: Day 14, 1% b.w. active in aqueous emulsion of Glyceryl stearyl citrate (Dracorin CE); for colony counts Day 28: Day 28, 1% b.w. active in aqueous emulsion of Glyceryl stearyl citrate (Dracorin CE)
Experimental: as §1, with “micro-organisms. The results are shown in Table 1 and indicate the high activity of the actives against yeast and bacteria, but not against mould.” for “micro-organisms.”

E. coli = assay: Challenge test of preserved emulsion, E. coli; settings: for colony counts Day 2: Day 2, 1% b.w. active in aqueous emulsion of Glyceryl stearyl citrate (Dracorin CE); for colony counts Day 7: Day 7, 1% b.w. active in aqueous emulsion of Glyceryl stearyl citrate (Dracorin CE); for colony counts Day 14: Day 14, 1% b.w. active in aqueous emulsion of Glyceryl stearyl citrate (Dracorin CE); for colony counts Day 28: Day 28, 1% b.w. active in aqueous emulsion of Glyceryl stearyl citrate (Dracorin CE)
Experimental: as §1, with “micro-organisms. The results are shown in Table 1 and indicate the high activity of the actives against yeast and bacteria, but not against mould.” for “micro-organisms.”

Pseudomonas aeruginosa = assay: Minimum inhibitory concentration according to DIN 58940, Pseudomonas aeruginosa; settings: Pseudomonas aeruginosa, single antimicrobial agents
From the text: as §2, §3, §4, §5, §6

Candida albicans = assay: Minimum inhibitory concentration according to DIN 58940, Candida albicans; settings: Candida albicans, single antimicrobial agents
From the text: as §2, §3, §4, §5, §6

C. albicans = assay: Challenge test of preserved emulsion, C. albicans; settings: for colony counts Day 7: Day 7, 1% b.w. active in aqueous emulsion of Glyceryl stearyl citrate (Dracorin CE); for colony counts Day 14: Day 14, 1% b.w. active in aqueous emulsion of Glyceryl stearyl citrate (Dracorin CE); for colony counts Day 28: Day 28, 1% b.w. active in aqueous emulsion of Glyceryl stearyl citrate (Dracorin CE)
Experimental: as §1, with “micro-organisms. The results are shown in Table 1 and indicate the high activity of the actives against yeast and bacteria, but not against mould.” for “micro-organisms.”

[1] = Day 0, 1% b.w. active in aqueous emulsion of Glyceryl stearyl citrate (Dracorin CE)

| MIC (Aspergillus brasiliensis) [µg/mL] | MIC (Escherichia coli) [µg/mL] | MIC (Staphylococcus aureus) [µg/mL] | MIC (Pseudomonas aeruginosa) [µg/mL] | MIC (Candida albicans) [µg/mL] | SMILES | colony counts Day 2 (A. brasiliensis) [cfu/g formulation] | colony counts Day 14 (A. brasiliensis) [cfu/g formulation] | colony counts Day 28 (A. brasiliensis) [cfu/g formulation] | colony counts Day 2 (S. aureus) [cfu/g formulation] | colony counts Day 7 (S. aureus) [cfu/g formulation] | colony counts Day 14 (S. aureus) [cfu/g formulation] | colony counts Day 28 (S. aureus) [cfu/g formulation] | colony counts Day 2 (P. aeruginosa) [cfu/g formulation] | colony counts Day 7 (P. aeruginosa) [cfu/g formulation] | colony counts Day 14 (P. aeruginosa) [cfu/g formulation] | colony counts Day 28 (P. aeruginosa) [cfu/g formulation] | colony counts Day 2 (E. coli) [cfu/g formulation] | colony counts Day 7 (E. coli) [cfu/g formulation] | colony counts Day 14 (E. coli) [cfu/g formulation] | colony counts Day 28 (E. coli) [cfu/g formulation] | also measured |
| --- | --- | --- | --- | --- | --- | --- | --- | --- | --- | --- | --- | --- | --- | --- | --- | --- | --- | --- | --- | --- | --- |
| 1000 | 2000 | 2500 | 5000 | 2000 | CCCCCCCOCC(O)CO (stereo not drawn) [Heptylglycerin] | 320.000 | 300.000 | 170.000 | 0 | 0 | 0 | 0 | 0 | 0 | 0 | 0 | 0 | 0 | 0 | 0 | colony counts Day 0 (A. brasiliensis; [1]): 220.000 cfu/g formulation; Colony counts day 0 (A. brasiliensis; Table 3, day 0, 1.0% total active): 220.000 cfu/g formulation; Relative colony counts day 0 (A. brasiliensis; Table 3, day 0, relative to day 0, 1.0% total active): 1.0000; Colony counts day 2 (A. brasiliensis; Table 3, day 2, 1.0% total active): 320.000 cfu/g formulation; Relative colony counts day 2 (A. brasiliensis; Table 3, day 2, relative to day 0, 1.0% total active): 1.4545; Colony counts day 7 (A. brasiliensis; Table 3, day 7, 1.0% total active): 340.000 cfu/g formulation; Relative colony counts day 7 (A. brasiliensis; Table 3, day 7, relative to day 0, 1.0% total active): 1.5455; Colony counts day 14 (A. brasiliensis; Table 3, day 14, 1.0% total active): 300.000 cfu/g formulation; Relative colony counts day 14 (A. brasiliensis; Table 3, day 14, relative to day 0, 1.0% total active): 1.3636; Colony counts day 28 (A. brasiliensis; Table 3, day 28, 1.0% total active): 170.000 cfu/g formulation; Relative colony counts day 28 (A. brasiliensis; Table 3, day 28, relative to day 0, <100 set to 100, 1.0% total active): 0.7727; colony counts Day 0 (S. aureus; [1]): 230.000 cfu/g formulation; colony counts Day 0 (P. aeruginosa; [1]): 250.000 cfu/g formulation; colony counts Day 0 (E. coli; [1]): 210.000 cfu/g formulation; colony counts Day 2 (C. albicans; Day 2, 1% b.w. active in aqueous emulsion of Glyceryl stearyl citrate (Dracorin CE)): <100 cfu/g formulation; colony counts Day 7 (C. albicans): 0 cfu/g formulation; colony counts Day 14 (C. albicans): 0 cfu/g formulation; colony counts Day 28 (C. albicans): 0 cfu/g formulation |
| 4000 | 4000 | 6000 | 6000 | 6000 | CCCCCCOCC(O)CO (stereo not drawn) [Hexylglycerin] | – | – | – | – | – | – | – | – | – | – | – | – | – | – | – | – |
| 500 | 1000 | 1000 | > 2000 | 1000 | CCCCCCCCOCC(O)CO (stereo not drawn) [Octylglycerin] | – | – | – | – | – | – | – | – | – | – | – | – | – | – | – | – |
| – | – | – | – | – | OCC(O)COCCCc1ccccc1 (stereo not drawn) [Phenylpropylglycerin] | 500.000 | 20.000 | 5.900 | <10 | <10 | <10 | <10 | <10 | <10 | <10 | <10 | <10 | <10 | <10 | <10 | colony counts Day 7 (C. albicans): <10 cfu/g formulation; colony counts Day 14 (C. albicans): <10 cfu/g formulation; colony counts Day 28 (C. albicans): <10 cfu/g formulation |
